Legend:
[1] = tested on: MDR1-MDCK cell monolayers; settings: dog, MDCK-MDR1, 120 min, 5 μM, pH 7.4
Experimental: (§1) Experimental Procedure: MDR1-MDCK cell monolayers are grown to confluence on collagen-coated, microporous membranes in 12-well assay plates. The permeability assay buffer is Hanks' balanced salt solution containing 10 mM HEPES and 15 mM glucose at a pH of 7.4. The buffer in the receiver chamber also contained 1% bovine serum albumin. The dosing solution concentration is 5 μM of test article in the assay buffer. Cell monolayers are dosed on the apical side (A-to-B) or basolateral side (B-to-A) and incubated at 37° C. with 5% CO2 in a humidified incubator. Samples are taken from the donor and receiver chambers at 120 minutes. Each determination is performed in duplicate. The flux of lucifer yellow is also measured post-experimentally for each monolayer to ensure no damage was inflicted to the cell monolayers during the flux period. All samples are assayed by LC-MS/MS using electrospray ionization.
(§2) Analytical Method: Liquid Chromatography • Column: Waters ACQUITY UPLC BEH Phenyl 30×2.1 mm, 1.7 μm • M.P. Buffer: 25 mM ammonium formate buffer, pH 3.5 • Aqueous Reservoir (A): 90% water, 10% buffer • Organic Reservoir (B): 90% acetonitrile, 10% buffer • Flow Rate: 0.7 mL/minute • Gradient Program:
(§3) • Total Run Time: 1.00 minute • Autosampler: 2 μL injection volume • Wash1: water/methanol/2-propanol:1/1/1; with 0.2% formic acid • Wash2: 0.1% formic acid in water • Brain Penetration • Potential Classification: A-B Papp≥3.0 and Efflux Ratio<3.0: High • A-B Papp≥3.0 and 10>Efflux Ratio≥3.0: Moderate • A-B Papp≥3.0 and Efflux Ratio≥10: Low • A-B Papp<3.0: Low

MDR1 = assay: in vitro; settings: dog; for Papp A→B at 120 min, 5 μM: MDCK-MDR1, pH 7.4, MDCK-MDR1: Papp A-B (10^−6, cm/s); for Papp B→A at 120 min, 5 μM: MDCK-MDR1, pH 7.4, MDCK-MDR1: Papp B-A (10^−6, cm/s)
Experimental: as §1, §2, §3

MDR1 (P-gp) = assay: MDCK-MDR1 permeability assay, blood-brain-barrier penetration potential; settings: dog, MDCK-MDR1, pH 7.4, MDCK-MDR1 Efflux Ratio
Experimental: as §1, §2, §3

SMN protein = SMN protein assay (MSD) in SMA patient fibroblasts (GM03813); assay type: cell-based, human
Summary of the method: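 Absolute SMN protein measured by Mesoscale Discovery assay in lysates, calibrated per plate with SMN standards (1–19.5 μg/ml). Cells: GM03813 SMA fibroblasts, 7000/well, 48 h compound exposure at doses of 2.5 μM down to 0.6 nM.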

Structure (SMILES) | MDCK-MDR1: % Recov A-B (%) [1] [%] | MDCK-MDR1: % Recov B-A (%) [1] [%] | Papp A→B at 120 min, 5 μM (MDR1) [×10⁻⁶ cm/s] | Papp B→A at 120 min, 5 μM (MDR1) [×10⁻⁶ cm/s] | efflux ratio at 120 min, 5 μM (MDR1 (P-gp)) | EC50 (SMN protein) [nM]
CN(c1cnc(-c2cc(F)c(-c3cn[nH]c3)cc2O)cn1)[C@@H]1CC2CC(F)(F)[C@@H](C1)N2 (single isomer, unassigned) [Compound 65E1] | 54 | 71 | 20.9 | 54.5 | 3 | 101 to 500
CN(c1cnc(-c2cc(F)c(-c3cn[nH]c3)cc2O)cn1)[C@@H]1CC2N[C@H](C1)CC2(F)F (single isomer, unassigned) [Compound 65E2] | 54 | 63 | 28.3 | 37.7 | 1 | 501 to 10000
CN(c1cnc(-c2cc(F)c(-c3cnn(C)c3)cc2O)cn1)[C@@H]1CC2CC(F)(F)[C@@H](C1)N2 (single isomer, unassigned) [Compound 66E1] | 42 | 51 | 21.9 | 20.7 | 1 | 101 to 500
CN(c1cnc(-c2cc(F)c(-c3cnn(C)c3)cc2O)cn1)[C@@H]1CC2N[C@H](C1)CC2(F)F (single isomer, unassigned) [Compound 66E2] | 43 | 55 | 22.7 | 18.3 | 1 | 501 to 10000
COc1cc(-c2cc(O)c(-c3cnc(N(C)[C@@H]4CC5CC(F)(F)[C@@H](C4)N5)cn3)cc2F)cnn1 (single isomer, unassigned) [Compound 67E1] | 62 | 74 | 22.2 | 42.5 | 2 | 501 to 10000
COc1cc(-c2cc(O)c(-c3cnc(N(C)[C@@H]4CC5N[C@H](C4)CC5(F)F)cn3)cc2F)cnn1 (single isomer, unassigned) [Compound 67E2] | 60 | 68 | 14.3 | 55.4 | 4 | 501 to 10000
COc1cc(-c2ccc(-c3cnc(N(C)[C@@H]4CC5N[C@H](C4)CC5(F)F)cn3)c(O)c2)cnn1 (single isomer, unassigned) [Compound 68E1] | 63 | 86 | 9.35 | 43 | 5 | 501 to 10000
Cc1nc(-c2ccc(-c3cnc(N(C)[C@@H]4CC5CC[C@H](N5)[C@@H]4F)cn3)c(O)c2)no1 (single isomer, unassigned) [Compound 69E1] | 49 | 61 | 9.43 | 17.9 | 2 | 501 to 10000
Cc1nc(-c2ccc(-c3cnc(N(C)[C@H]4C[C@@H]5CCC(N5)[C@H]4F)cn3)c(O)c2)no1 (single isomer, unassigned) [Compound 69E2] | 47 | 62 | 9.26 | 20.3 | 2 | 101 to 500
CN(c1cnc(-c2ccc(-c3cnn(C)c3)cc2O)cn1)[C@@H]1CC2COC[C@H](N2)[C@@H]1F (single isomer, unassigned) [Compound 73E1] | 50 | 71 | 11.5 | 38.1 | 3 | 101 to 500
CN(c1cnc(-c2ccc(-c3cnn(C)c3)cc2O)cn1)[C@H]1C[C@@H]2COCC(N2)[C@H]1F (single isomer, unassigned) [Compound 73E2] | 51 | 74 | 9.34 | 49.1 | 5 | 501 to 10000

— patent US11964971B2, “Methods and compositions for modulating splicing” (Skyhawk Therapeutics, Inc., priority 2019, dated 2024)
